Patent US9540325B2, “N1-cyclic amine-N5-substituted phenyl biguanide derivatives, methods of preparing the same and pharmaceutical composition comprising the same” (Immunomet Therapeutics, Inc., priority 2011, dated 2017)
Structures can show the parent of a compound that is named as a salt.

How the values were obtained:
[1] = Solubility in water of hydrochloride and acetate salts; format: physicochemical; details: room temperature
Experimental: The solubilities in water of the hydrochlorides prepared in Examples 26, 27, 32, 33, 48, 49, 53 and 54, and the solubilities in water of the acetates prepared in Examples 70 to 77, were compared.
The experimental conditions and methods are described, as follows.
1) 1 ml of distilled water is added to a container including 5 mg of salt at room temperature.
2) The resulting mixture is stirred for 10 minutes, and then kept at room temperature for 1 hour.
3) Undissolved residual salt is recovered and weighed.
4) The ratio of the amount of the recovered salt and the amount of the dissolved salt is calculated.
5) Operations 1) to 4) are repeatedly performed with increasing amount (i.e., 10, 15, 20, 25 and 30 mg) of salt.
The experimental procedures were performed for each of the hydrochlorides of Examples 26, 27, 32, 33, 48, 49, 53 and 54 and the acetates of Examples 70 to 77. The comparative solubilities obtained using the hydrochlorides of Examples 26, 27, 32, 33, 48, 49, 53 and 54 and the acetates of Examples 70 to 77 are listed in the following Table 1.

AMPKα = experiment: Measurement of AMPK activation effect (AMPKα Thr172 phosphorylation immunoassay) in MCF7 cells; format: cell-based, human; details: 24 hours; for AMPK activation effect at 10 μM (%) / AMPK activation effect at 50 μM (%): relative to untreated cells; for AMPK activation effect AC150: concentration at which AMPK activation reached 150%
Method in brief: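 MCF7 cells in DMEM/10% FBS were treated 24 h with derivatives at 5, 10 and 50 μM (metformin hydrochloride control, 0.05–10 mM). AMPKα Thr172 phosphorylation was measured by immunoassay on 20 μg lysate. AC150 (concentration giving 150% activation) came from concentration–response curves, with activation also reported at fixed concentrations.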

HCT116 cells = experiment: Measurement of effect of inhibiting cancer cell proliferation (MTT); format: cell-based, human; details: for inhibition at 100 µM: HCT-116, 100 μM, read-out: Cell Growth Inhibition (%) at 100 μM
Method in brief: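 HCT116 cells (~5,000/well, DMEM with 10% FBS) treated 48 h with compound at 0.39–100 μM, metformin hydrochloride control at 0.1–25 mM. Viability by MTT (3 h, formazan in DMSO, A560) relative to untreated wells; GIC50 from the viability curve, also viability at 100 μM.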

Snail = experiment: EMT inhibitory effect by inhibition of Snail expression (immunoblotting) in MCF7 cells; format: cell-based, human; details: MCF7, 48 hours, untreated control = 100%
Experimental: Cells undergoing EMT owing to various cytokines and growth factors can acquire motility and thus move a distance to form tumors in new tissues. Therefore, the metastasis of cancer cells can be inhibited by controlling expression of EMT-related transcription factors to hinder EMT. Based on these facts, the activities of biguanide derivatives that inhibit Snail expression, which is a transcription factor inducing EMT in the MCF7 cell line derived from human breast cancer, were measured and simple experimental methods are described, as follows.
MCF7 cells derived from human breast cancer (commercially available from Korean Cell Line Bank) were cultured in a DMEM medium supplemented with 10% (v/v) fetal bovine serum (commercially available from Gibco Life Technologies (US)), put into a 6-well plate so that the number of cultured cells could amount to approximately 5×10^5 cells per well, and then incubated in an incubator supplied with 5% CO2 (culture temperature: 37° C., pH: 7.0 to 7.4). The culture media were treated with phenformin hydrochloride and the compounds synthesized in the examples at contents of 1 μM and 10 μM, respectively, and then incubated for 48 hours. Metformin hydrochloride was used as the control, and the cells were treated with 1 mM and 10 mM metformin hydrochloride. After 48 hours, the cells were lysed in a cell lysis buffer containing 10 mM Tris HCl (pH7.4), 100 mM NaCl, 1 mM EDTA, 1 mM EGTA, 1 mM NaF, 20 mM Na4P2O7, 2 mM Na3VO4, 1% TritonX-100, 10% glycerol, 0.5% deoxycholate and 1 mM PMSF. Then, 25 μg of the cell lysate was electrophoresized in an SDS-PAGE gel, and then transferred to a […] membrane (commercially available from Amersham Life Science). The membrane reacted with rat monoclonal anti-human Snail (commercially available from Cell signaling Technology) or mouse monoclonal anti-β-actin (commercially available from Santa cruz Biotechnology), and unbound antibodies were removed. In this case, anti-β-actin was used as the antibody to ensure that the amount of proteins loaded into the SDS-PAGE gel is identical. The membrane was reacted again with a secondary antibody, anti-rat IgG (commercially available from Cell signaling Technology) or anti-mouse IgG (commercially available from Santa Cruz Biotechnology). Finally, the antibody bound to the membrane was detected using an ECL Plus system (commercially available from Amersham Life Science). Also, the expression level of Snail with respect to β-actin was analyzed using a Scion image analysis program. Here, when it was assumed that the expression level of the untreated control was 100%, the expression level of the Snail by treatment with the compounds synthesized in the examples was indicated as a percentage (%).

[2] = content 5 mg/1 ml distilled water
[3] = content 10 mg/1 ml distilled water
[4] = content 15 mg/1 ml distilled water
[5] = content 20 mg/1 ml distilled water
[6] = content 25 mg/1 ml distilled water
[7] = content 30 mg/1 ml distilled water

For `Cl.N=C(NC(=N)N1CCCC1)Nc1ccc(OC(F)(F)F)cc1` [Example 32, N1-pyrrolidine-N5-(4-trifluoromethoxy)phenyl biguanide hydrochloride], the “Solubility in water (%), hydrochloride salt” value [1, 2] was 50%, the “AMPK activation effect at 10 μM (%)” value (AMPKα) was 204% and the “AMPK activation effect at 50 μM (%)” value (AMPKα) was 680%. The “AMPK activation effect AC150” value (AMPKα) was 5.1 µM, the inhibition at 100 µM (HCT116 cells; Homo sapiens, 48 hours) was 97.6% and the GI50 (HCT116 cells; Homo sapiens, HCT-116, 48 h) was 23.6 µM.

For `Cl.N=C(NC(=N)N1CCCC1)Nc1ccc(C(F)(F)F)c(F)c1` [Example 48, N1-pyrrolidine-N5-(3-fluoro-4-trifluoromethyl)phenyl biguanide hydrochloride], the “Solubility in water (%), hydrochloride salt” value [1, 2] was 80%, the melting point was 253 to 254 °C and the “AMPK activation effect at 10 μM (%)” value (AMPKα) was 299%. For the same molecule, the “AMPK activation effect AC150” value (AMPKα) was 2.5 µM, the inhibition at 100 µM (HCT116 cells; Homo sapiens, 48 hours) was 101% and the GI50 (HCT116 cells; Homo sapiens, HCT-116, 48 h) was 9.3 µM.

With `N=C(NC(=N)N1CCCCC1)Nc1ccc(C(F)(F)F)cc1` [Example 71, N1-piperidine-N5-(4-trifluoromethyl)phenyl biguanide acetate] the “Solubility in water (%), acetate salt” value [1, 2] was 100%, the “Solubility in water (%), acetate salt” value [1, 3] was 50% and the “AMPK activation effect at 10 μM (%)” value (AMPKα) was 313%. For the same molecule, the “AMPK activation effect AC150” value (AMPKα) was 2.3 µM.

With `N=C(NC(=N)N1CCCC1)Nc1ccc(OC(F)(F)F)cc1` [Example 72, N1-pyrrolidine-N5-(4-trifluoromethoxy)phenyl biguanide acetate] the “Solubility in water (%), acetate salt” value [1, 2] was 100%, the “Solubility in water (%), acetate salt” value [1, 3] was 100% and the “Solubility in water (%), acetate salt” value [1, 4] was 100%. The “Solubility in water (%), acetate salt” value [1, 5] was 100%, the “Solubility in water (%), acetate salt” value [1, 6] was 100% and the “Solubility in water (%), acetate salt” value [1, 7] was 50%. For the same molecule, the “AMPK activation effect at 10 μM (%)” value (AMPKα) was 186%, the “AMPK activation effect at 50 μM (%)” value (AMPKα) was 938% and the “AMPK activation effect AC150” value (AMPKα) was 4.6 µM.

With `N=C(NC(=N)N1CCCC1)Nc1ccc(OC(F)(F)F)c(F)c1` [Example 76, N1-pyrrolidine-N5-(3-fluoro-4-trifluoromethoxy)phenyl biguanide acetate] the “Solubility in water (%), acetate salt” value [1, 2] was 100%, the “Solubility in water (%), acetate salt” value [1, 3] was 100% and the “Solubility in water (%), acetate salt” value [1, 4] was 70%. The “AMPK activation effect at 10 μM (%)” value (AMPKα) was 341% and the “AMPK activation effect AC150” value (AMPKα) was 1.3 µM.

In the case of `Cl.N=C(NC(=N)N1CCCCC1)Nc1ccc(OC(F)(F)F)cc1` [Example 33, N1-piperidine-N5-(4-trifluoromethoxy)phenyl biguanide hydrochloride], the “Solubility in water (%), hydrochloride salt” value [1, 2] is reported as 50%, the melting point is reported as 277.3 °C and the “AMPK activation effect at 10 μM (%)” value (AMPKα) is reported as 538%. The “AMPK activation effect AC150” value (AMPKα) was 1.4 µM, the inhibition at 100 µM (HCT116 cells; Homo sapiens, 48 hours) was 97.9% and the GI50 (HCT116 cells; Homo sapiens, HCT-116, 48 h) was 7.9 µM.

With `Cl.N=C(NC(=N)N1CCCCC1)Nc1ccc(OC(F)(F)F)c(F)c1` [Example 54, N1-piperidine-N5-(3-fluoro-4-trifluoromethoxy)phenyl biguanide hydrochloride] the “Solubility in water (%), hydrochloride salt” value [1, 2] was 20%, the melting point was 262 to 263 °C and the “AMPK activation effect at 10 μM (%)” value (AMPKα) was 400%. The “AMPK activation effect AC150” value (AMPKα) was 0.5 µM, the inhibition at 100 µM (HCT116 cells; Homo sapiens, 48 hours) was 96.4% and the GI50 (HCT116 cells; Homo sapiens, HCT-116, 48 h) was 4.5 µM.

In the case of `Cl.N=C(NC(=N)N1CCCC1)Nc1ccc(OC(F)(F)F)c(F)c1` [Example 53, N1-pyrrolidine-N5-(3-fluoro-4-trifluoromethoxy)phenyl biguanide hydrochloride], the “Solubility in water (%), hydrochloride salt” value [1, 2] is reported as 20%, the melting point is reported as 278 to 279 °C and the “AMPK activation effect at 10 μM (%)” value (AMPKα) is reported as 315%. For the same molecule, the “AMPK activation effect AC150” value (AMPKα) was 5.0 µM, the inhibition at 100 µM (HCT116 cells; Homo sapiens, 48 hours) was 101% and the GI50 (HCT116 cells; Homo sapiens, HCT-116, 48 h) was 7.6 µM.

For `N=C(NC(=N)N1CCCCC1)Nc1ccc(C(F)(F)F)c(F)c1` [Example 75, N1-piperidine-N5-(3-fluoro-4-trifluoromethyl)phenyl biguanide acetate], the “Solubility in water (%), acetate salt” value [1, 2] was 70%, the “AMPK activation effect at 10 μM (%)” value (AMPKα) was 710% and the “AMPK activation effect AC150” value (AMPKα) was 2.0 µM.

With `Cl.N=C(NC(=N)N1CCCCC1)Nc1ccc(C(F)(F)F)c(F)c1` [Example 49, N1-piperidine-N5-(3-fluoro-4-trifluoromethyl)phenyl biguanide hydrochloride] the “Solubility in water (%), hydrochloride salt” value [1, 2] was 20%, the melting point was 263 to 264 °C and the “AMPK activation effect at 10 μM (%)” value (AMPKα) was 258%. For the same molecule, the “AMPK activation effect AC150” value (AMPKα) was 2.7 µM, the inhibition at 100 µM (HCT116 cells; Homo sapiens, 48 hours) was 96.5% and the GI50 (HCT116 cells; Homo sapiens, HCT-116, 48 h) was 5.2 µM.

For `N=C(NC(=N)N1CCCC1)Nc1ccc(C(F)(F)F)cc1` [Example 70, N1-pyrrolidine-N5-(4-trifluoromethyl)phenyl biguanide acetate], the “Solubility in water (%), acetate salt” value [1, 2] was 100%, the “Solubility in water (%), acetate salt” value [1, 3] was 100% and the “Solubility in water (%), acetate salt” value [1, 4] was 100%. The “Solubility in water (%), acetate salt” value [1, 5] was 100%, the “Solubility in water (%), acetate salt” value [1, 6] was 100% and the “Solubility in water (%), acetate salt” value [1, 7] was 50%. For the same molecule, the “AMPK activation effect at 10 μM (%)” value (AMPKα) was 554%, the “AMPK activation effect AC150” value (AMPKα) was 2.0 µM and the GI50 (HCT116 cells; 48 hours) was 5.2 µM.

In the case of `CN(C)C(=N)N=C(N)N` [Metformin hydrochloride, reference compound], the “AMPK activation effect at 50 μM (%)” value (AMPKα) is reported as 130.0%, the “AMPK activation effect AC150” value (AMPKα) is reported as 188.3 µM and the inhibition at 100 µM (HCT116 cells; Homo sapiens, 48 hours) is reported as 1.8%. For the same molecule, the “Snail Expression Rate (%)” value (Snail; 1 mM) was 70.3% and the “Snail Expression Rate (%)” value (Snail; 10 mM) was 13.6%.

With `N=C(NC(=N)N1CCCC1)Nc1ccc(C(F)(F)F)c(F)c1` [Example 74, N1-pyrrolidine-N5-(3-fluoro-4-trifluoromethyl)phenyl biguanide acetate] the “Solubility in water (%), acetate salt” value [1, 2] was 100%, the “Solubility in water (%), acetate salt” value [1, 3] was 100% and the “Solubility in water (%), acetate salt” value [1, 4] was 100%. For the same molecule, the “Solubility in water (%), acetate salt” value [1, 5] was 50%, the “AMPK activation effect at 10 μM (%)” value (AMPKα) was 461% and the “AMPK activation effect AC150” value (AMPKα) was 3.4 µM.
